ChEMBL document CHEMBL1145395, “De novo design of selective antibiotic peptides by incorporation of unnatural amino acids” (J Med Chem, 2007)
Converted amounts (≈) assume the structure as drawn. Non-standard residues stand in square brackets, D forms with d. Residues, ends and D or L forms follow the SMILES beside them. ξ: configuration not given here. Pro(3ξ,4ξ-(CH2)4) = O=C(O)[C@H]1NCC2CCCCC21; Oic = O=C(O)[C@@H]1C[C@@H]2CCCC[C@@H]2N1; Tic = O=C(O)[C@@H]1Cc2ccccc2CN1; ξTic = O=C(O)C1Cc2ccccc2CN1; Orn = NCCC[C@H](N)C(=O)O

Key:
[1] = test system: Salmonella typhimurium; test: Antibacterial activity against Salmonella Typhimurium ATCC 13311; format: functional, Salmonella enterica subsp. enterica serovar Typhimurium; details: Salmonella enterica
[2] = test system: Staphylococcus aureus; test: Antibacterial activity against methicillin/gentamicin/tetracycline resistant Staphylococcus aureus ATCC 33592; format: functional
[3] = test system: Mycobacterium; test: Antibacterial activity against Mycobacterium ranae ATCC 110; format: functional
[4] = test system: Bacillus subtilis; test: Antibacterial activity against Bacillus subtilis ATCC 43223; format: functional
[5] = test system: Mus musculus; test: Acute toxicity in mouse at 1 mg/kg, ip after 6 days; format: organism-based; parameters: dose 1 mg/kg, route intraperitoneal; details: in vivo, 144 h
[6] = test system: Mus musculus; test: Acute toxicity in mouse at 5 mg/kg, ip after 6 days; format: organism-based; parameters: dose 5 mg/kg, route intraperitoneal; details: in vivo, 144 h
[7] = test system: Mus musculus; test: Acute toxicity in mouse at 25 mg/kg, ip after 6 days; format: organism-based; parameters: dose 25 mg/kg, route intraperitoneal; details: in vivo, 144 h
[8] = Toxicity to mouse RBC assessed as hemolytic activity at 100 uM; format: cell-based, Erythrocyte; details: red blood cells, read-out: Activity
[9] = Toxicity to mouse RBC assessed as hemolytic activity at 25 uM; format: cell-based, Erythrocyte; details: red blood cells, read-out: Activity
[10] = test system: Mus musculus; test: Acute toxicity in mouse at 125 mg/kg, ip after 6 days; format: organism-based; parameters: dose 125 mg/kg, route intraperitoneal; details: in vivo, 144 h
[11] = test system: Mus musculus; test: Effect on wound healing in CD1 mouse skin at 100 ug applied topically after 3 days; format: functional
[12] = test system: Mus musculus; test: Effect on wound healing in CD1 mouse skin at 100 ug applied topically after 5 days; format: functional
[13] = test system: Mus musculus; test: Effect on wound healing in CD1 mouse skin at 100 ug applied topically after 7 days; format: functional
[14] = test system: Mus musculus; test: Effect on wound healing in CD1 mouse skin at 100 ug applied topically after 9 days; format: functional
[15] = test system: Mus musculus; test: Effect on wound healing in CD1 mouse skin at 100 ug applied topically after 11 days; format: functional
[16] = test system: Mus musculus; test: Effect on wound healing in CD1 mouse skin at 100 ug applied topically; format: functional

CC(=O)N[C@@H](Cc1ccccc1)C(=O)N1Cc2ccccc2C[C@H]1C(=O)N1CC2CCCCC2[C@H]1C(=O)N[C@@H](CCCCN)C(=O)N1Cc2ccccc2C[C@H]1C(=O)N1CC2CCCCC2[C@H]1C(=O)N[C@@H](Cc1ccccc1)C(=O)N1Cc2ccccc2C[C@H]1C(=O)N1CC2CCCCC2[C@H]1C(=O)N[C@@H](CCCCN)C(=O)N1Cc2ccccc2C[C@H]1C(=O)N[C@@H](CCCCN)C(=O)N[C@@H](CCCCN)C(=O)N[C@@H](CCCCN)C(=O)N[C@@H](CCCCN)C(N)=O (some centres not stated) (Ac-F[Tic][Pro(3ξ,4ξ-(CH2)4)]K[Tic][Pro(3ξ,4ξ-(CH2)4)]F[Tic][Pro(3ξ,4ξ-(CH2)4)]K[Tic]KKKK-NH2)
MIC [1]: 10 µM (≈ 22.1 µg/mL)
MIC [2]: 3 µM (≈ 6.64 µg/mL)
MIC [3]: 30 µM (≈ 66.4 µg/mL)
MIC [4]: 1 µM (≈ 2.21 µg/mL)
Activity [5]: Non-toxic
Activity [6]: Non-toxic
Activity [7]: Non-toxic
hemolysis at 100 µM [8]: 86.8%
hemolysis at 25 µM [9]: 50%

CC(=O)NCC(=O)N[C@@H](Cc1ccccc1)C(=O)N1Cc2ccccc2C[C@H]1C(=O)N1[C@H](C(=O)NCC(=O)N[C@@H](CCCCN)C(=O)N2Cc3ccccc3C[C@H]2C(=O)N2[C@H](C(=O)NCC(=O)N[C@@H](Cc3ccccc3)C(=O)N3Cc4ccccc4C[C@H]3C(=O)N3[C@H](C(=O)NCC(=O)N[C@@H](CCCCN)C(=O)N4Cc5ccccc5C[C@H]4C(=O)N[C@@H](CCCCN)C(=O)N[C@@H](CCCCN)C(=O)N[C@@H](CCCCN)C(=O)N[C@@H](CCCCN)C(N)=O)C[C@@H]4CCCC[C@@H]43)C[C@@H]3CCCC[C@@H]32)C[C@@H]2CCCC[C@@H]21 (Ac-GF[Tic][Oic]GK[Tic][Oic]GF[Tic][Oic]GK[Tic]KKKK-NH2) [listing 1 of 2 here]
Activity [6]: Toxic
Activity [7]: Toxic
Activity [10]: Toxic
hemolysis at 100 µM [8]: 14%

CC(=O)NCC(=O)N[C@@H](Cc1ccccc1)C(=O)N1Cc2ccccc2C[C@H]1C(=O)N1[C@H](C(=O)NCC(=O)N[C@@H](CCCCN)C(=O)N2Cc3ccccc3C[C@H]2C(=O)N2[C@H](C(=O)NCC(=O)N[C@@H](Cc3ccccc3)C(=O)N3Cc4ccccc4C[C@H]3C(=O)N3[C@H](C(=O)NCC(=O)N[C@@H](CCCCN)C(=O)N4Cc5ccccc5C[C@H]4C(=O)N[C@@H](CCCCN)C(=O)N[C@@H](CCCCN)C(=O)N[C@@H](CCCCN)C(=O)N[C@@H](CCCCN)C(N)=O)C[C@@H]4CCCC[C@@H]43)C[C@@H]3CCCC[C@@H]32)C[C@@H]2CCCC[C@@H]21 (Ac-GF[Tic][Oic]GK[Tic][Oic]GF[Tic][Oic]GK[Tic]KKKK-NH2) [listing 2 of 2 here]
MIC [1]: 10 µM (≈ 24.4 µg/mL)
MIC [2]: 3 µM (≈ 7.32 µg/mL)
MIC [3]: 10 µM (≈ 24.4 µg/mL)
MIC [4]: 1 µM (≈ 2.44 µg/mL)
Activity [11]: 36.3%
Activity [12]: 51.5%
Activity [13]: 63.3%
Activity [14]: 69.8%
Activity [15]: 77.5%
CT50 [16]: 6.1 days

CC(=O)NCC(=O)N[C@@H](Cc1ccccc1)C(=O)N1Cc2ccccc2C[C@H]1C(=O)N1CC2CCCCC2[C@H]1C(=O)NCC(=O)N[C@@H](CCCN)C(=O)N1Cc2ccccc2C[C@H]1C(=O)N1CC2CCCCC2[C@H]1C(=O)NCC(=O)N[C@@H](Cc1ccccc1)C(=O)N1Cc2ccccc2C[C@H]1C(=O)N1CC2CCCCC2[C@H]1C(=O)NCC(=O)N[C@@H](CCCN)C(=O)N1Cc2ccccc2C[C@H]1C(=O)N[C@@H](CCCN)C(=O)N[C@@H](CCCN)C(=O)N[C@@H](CCCN)C(=O)N[C@@H](CCCN)C(N)=O (some centres not stated) (Ac-GF[Tic][Pro(3ξ,4ξ-(CH2)4)]G[Orn][Tic][Pro(3ξ,4ξ-(CH2)4)]GF[Tic][Pro(3ξ,4ξ-(CH2)4)]G[Orn][Tic][Orn][Orn][Orn][Orn]-NH2)
MIC [1]: 3 µM (≈ 7.07 µg/mL)
MIC [2]: 3 µM (≈ 7.07 µg/mL)
MIC [3]: 10 µM (≈ 23.6 µg/mL)
MIC [4]: 0.3 µM (≈ 0.707 µg/mL)
Activity [11]: 38.8%
Activity [12]: 51.2%
Activity [13]: 67.2%
Activity [14]: 72.8%
Activity [15]: 81.1%
CT50 [16]: 4.7 days

CC(=O)NCC(=O)N1Cc2ccccc2C[C@H]1C(=O)N1CC2CCCCC2[C@H]1C(=O)N[C@@H](CCCCN)C(=O)N1Cc2ccccc2C[C@H]1C(=O)N1CC2CCCCC2[C@H]1C(=O)NCC(=O)N1Cc2ccccc2CC1C(=O)N1CC2CCCCC2[C@H]1C(=O)N[C@@H](CCCCN)C(=O)N1Cc2ccccc2C[C@H]1C(=O)N[C@@H](CCCCN)C(=O)N[C@@H](CCCCN)C(=O)N[C@@H](CCCCN)C(=O)N[C@@H](CCCCN)C(N)=O (some centres not stated) (Ac-G[Tic][Pro(3ξ,4ξ-(CH2)4)]K[Tic][Pro(3ξ,4ξ-(CH2)4)]G[ξTic][Pro(3ξ,4ξ-(CH2)4)]K[Tic]KKKK-NH2)
MIC [1]: 10 µM (≈ 20.3 µg/mL)
MIC [2]: 10 µM (≈ 20.3 µg/mL)
MIC [3]: 3 µM (≈ 6.1 µg/mL)
MIC [4]: 1 µM (≈ 2.03 µg/mL)
Activity [5]: Non-toxic
Activity [6]: Non-toxic
Activity [7]: Non-toxic
hemolysis at 100 µM [8]: 26.7%
hemolysis at 25 µM [9]: 9.2%
